The source of these data is patent US20220395553A1, “CXCR4 ANTAGONIST PEPTIDES” (COHBAR, INC., priority 2019, published 2022).

Square brackets hold non-standard residues; d marks the D form. Peptide text beside a SMILES is read from it.

Test [1] addresses T1, human CXCR4 (Homo sapiens, UniProt P61073). In words: IC50 for inhibition of CXCR4 activation, β-Arrestin recruitment (Example 22). Format: cell-based. The arrangement: host or cells: C2C12 (mouse myoblast) CXCR4 β-Arrestin PathHunter cell line. The method, boiled down:
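C2C12 cells co-expressing ProLink-tagged human CXCR4 and Enzyme Acceptor-tagged β-arrestin (PathHunter). Peptides tested in 10-point, 3-fold dilutions from 1 μM (1 μM–0.05 nM). Recruitment read by chemiluminescent enzyme-fragment complementation after 90 min incubation.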

For a further test, the system named is Jurkat cells. In words: CXCL12 mediated cell migration, Jurkat cells. Particulars: 1.1 μM test article, 100 ng/ml CXCL12, 1 hour. It is filed as cell-based, human. Here is the method: The assay was performed following a protocol similar to that described by Peng, et al., Mol Cancer Ther., 14480-90 (2015), incorporated herein by reference. Peptides were initially prepared as 1 mM stock in H2O and tested at a final concentration of 1.1 μM. […] Jurkat cells were resuspended in serum free media (RPMI+GlutaMax; Gibco/Thermo Fisher Scientific; Gaithersburg, Md.) containing 0.5% bovine serum albumin at density of 5×10^6 cells/ml. […] Cells (250,000 cells in 50 μl) supplemented with the appropriate treatments were seeded on to the upper chamber of a 96-well 5 μm HTS Transwell filter insert (Corning/Costar; Tewksbury, Mass.). […] Filter inserts were immediately placed on top of 96-well receiver trays and placed at 37° C. in a humidified atmosphere of 5% CO2/95% air for 1 hour. Following the 1 hour incubation period the filter inserts were carefully removed and the migration of cells across the filter into the bottom chamber (receiver wells) was determined by measuring ATP levels using Cell TiterGlo 2.0, according to manufacturer's instructions (Promega; Madison, Wis.); luminescence was measured using a Cytation 3 plate reader (BioTek; Winooski, Vt.).

For test [2], the system named is CXCR4/CXCL12 induced p-MEK. Put plainly: CXCR4/CXCL12 induced p-MEK in Jurkat cells (ELISA). It is filed as cell-based, human. The note with it: 5 nM CXCL12, 5 min. The protocol:
The assay was performed following a protocol similar to that described by Peng, et al., Mol Cancer Ther., 14 480-90 (2015), incorporated herein by reference. […] Jurkat cells were resuspended in standard growth media (RPMI+GlutaMax media; Gibco/Thermo Fisher Scientific; Gaithersburg, Md.) containing 10% FBS and 1% penicillin/streptomycin. Assays were performed using fresh or conditioned media (media cultured overnight in presence of Jurkat cells) to resuspend cells at density of 2×10^6 cells/ml and […] of cell suspension was immediately placed in 1.7 ml microfuge tubes. […] Following the 5 min incubation, cells were centrifuged at 1000×g for 4 min at 4° C. The supernatant was removed and the cells were rinsed with 1 ml of HBSS containing calcium and magnesium. The HBSS was removed and the cells were immediately lysed in 150 l of lysis buffer included with Phospho-MEK1 (Ser217/221) Sandwich ELISA kit (Cell Signaling Technology; Danvers, Mass.); lysis buffer was supplemented with 1 m M PMSF (Millipore-Sigma; Saint Louis, Mo.) and Halt protease/phosphatase inhibitor cocktail (Thermo-Fisher; Waltham, Mass.) prior to use. The samples were then placed on ice for 10 min and vortexed periodically. Following the lysis step, the samples were centrifuged at 12,500 rpm for 10 min at 4° C. p-MEK expression in each of the samples was then measure using Phospho-MEK1 (Ser217/221) Sandwich ELISA kit according to manufacturer's instructions. Absorbance was measured using a Cytation 3 plate reader at […] (BioTek; Winooski, Vt.).
For orientation: ELISA stands for enzyme-linked immunosorbent assay.

The target of test [3] is T1, human CXCR4. Put plainly: CXCR4/CXCL12 binding, HTRF format, single concentration (Example 23). Also on record: host or cells: HEK293 (Tag-lite CXCR4 cells, frozen aliquots, transient expression). The note with it: 15 nM CXCR4R fluorescent probe, 3 hours, HEK293 Tag-lite CXCR4 cells. The method, boiled down: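 Tag-lite CXCR4 cells were exposed to peptide at 400 nM final with 15 nM (EC80) fluorescent CXCR4 probe for 3 h at room temperature. HTRF was read, and the 665/620 nm ratio ×10,000 measured probe bound to terbium-labelled receptor.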
Background: Time-resolved FRET reads energy transfer from a long-lived donor to a nearby acceptor.

T1 sequence (P61073 whole entry, the tested form may be a part): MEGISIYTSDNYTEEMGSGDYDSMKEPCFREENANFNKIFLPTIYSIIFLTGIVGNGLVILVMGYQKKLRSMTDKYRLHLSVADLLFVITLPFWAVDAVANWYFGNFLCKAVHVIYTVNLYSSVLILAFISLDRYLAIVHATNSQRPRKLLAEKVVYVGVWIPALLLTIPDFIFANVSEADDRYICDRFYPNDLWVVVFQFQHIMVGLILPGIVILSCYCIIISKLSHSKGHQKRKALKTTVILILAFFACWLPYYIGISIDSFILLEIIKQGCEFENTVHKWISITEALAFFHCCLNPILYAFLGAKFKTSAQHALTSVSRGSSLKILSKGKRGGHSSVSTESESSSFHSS

A word on the IC50: it is the concentration at which inhibition is half-maximal. A lower IC50 goes with higher potency. In turn, `CC(C)C[C@H](NC(=O)[C@H](CO)NC(=O)[C@H](CO)NC(=O)[C@H](CCCNC(=N)N)NC(=O)[C@@H](NC(=O)[C@H](CO)NC(=O)[C@H](Cc1c[nH]cn1)NC(=O)[C@H](Cc1c[nH]cn1)NC(=O)[C@H](Cc1ccc(O)cc1)NC(=O)[C@H](CCCNC(=N)N)NC(=O)[C@H](CCCNC(=N)N)NC(=O)[C@@H](N)CC(C)C)C(C)C)C(=O)N[C@@H](CCCNC(=N)N)C(=O)NCC(=O)N[C@@H](Cc1ccc(O)cc1)C(=O)N[C@H](C(=O)N[C@@H](CCCCN)C(=O)O)[C@@H](C)O` [compound 79] (H-LRRYHHSVRSSLRGYTK-OH; N-terminus and C-terminus assumed) came in with an IC50 at human CXCR4 [1] of 3 nM. Besides, the “Percent Inhibition of CXCL12 Mediated Migration (1.1 μM Test Article)” value (shortened to “Percent Inhibition … (1.1 μM Test Article)”) with Jurkat cells amounted to 36%. For the same molecule, in test [2], the “Percent Inhibition of CXCR4/CXCL12 Induced p-MEK (100 nM Test Article)” value turned out to be 46% and the “Percent Inhibition of CXCR4/CXCL12 Induced p-MEK (1 μM Test Article)” value was 100%. Besides, the “Percent Inhibition of CXCR4/CXCL12 Binding (400 nM peptide)” value on human CXCR4 [3] is reported as 12%.

Take `CC(C)C[C@H](NC(=O)[C@H](CO)NC(=O)[C@H](CO)NC(=O)[C@H](CCCNC(=N)N)NC(=O)[C@@H](C)NC(=O)[C@H](CO)NC(=O)[C@H](Cc1c[nH]cn1)NC(=O)[C@H](Cc1c[nH]cn1)NC(=O)[C@H](Cc1ccc(O)cc1)NC(=O)[C@H](CCCNC(=N)N)NC(=O)[C@H](CCC(=O)O)NC(=O)[C@@H](N)CC(C)C)C(=O)N[C@@H](CCCNC(=N)N)C(=O)N1CCC[C@H]1C(=O)N[C@@H](Cc1ccccc1)C(=O)N[C@H](C(=O)N[C@@H](CCCCN)C(=O)O)[C@@H](C)O` [compound 61] (H-LERYHHS[dA]RSSLRPFTK-OH; N-terminus and C-terminus assumed): 8 nM corresponded to half-maximal inhibition at human CXCR4 [1] (IC50). Also, in test [2], the “Percent Inhibition of CXCR4/CXCL12 Induced p-MEK (100 nM Test Article)” value turned out to be 15% and the “Percent Inhibition of CXCR4/CXCL12 Induced p-MEK (1 μM Test Article)” value amounted to 46%. The “Percent Inhibition of CXCR4/CXCL12 Binding (400 nM peptide)” value on human CXCR4 [3] is 54%.

On to `CC(C)C[C@H](NC(=O)[C@H](CO)NC(=O)[C@@H](NC(=O)[C@H](CCCNC(=N)N)NC(=O)[C@@H](NC(=O)[C@H](CO)NC(=O)[C@H](Cc1c[nH]cn1)NC(=O)[C@H](Cc1c[nH]cn1)NC(=O)[C@H](Cc1ccc(O)cc1)NC(=O)[C@H](CCCNC(=N)N)NC(=O)[C@H](CCCNC(=N)N)NC(=O)[C@@H](N)CC(C)C)C(C)C)[C@@H](C)O)C(=O)N[C@@H](CCCNC(=N)N)C(=O)N1CCC[C@H]1C(=O)N[C@@H](Cc1ccc(O)cc1)C(=O)N[C@H](C(=O)N[C@@H](CCCCN)C(=O)O)[C@@H](C)O` [compound 70] (H-LRRYHHSVRTSLRPYTK-OH; N-terminus and C-terminus assumed), for which the “Percent Inhibition … (1.1 μM Test Article)” value in the test on Jurkat cells was determined as 21%. Besides, in test [2], the “Percent Inhibition of CXCR4/CXCL12 Induced p-MEK (100 nM Test Article)” value is given as 57% and the “Percent Inhibition of CXCR4/CXCL12 Induced p-MEK (1 μM Test Article)” value is given as 93%. For the same molecule, the “Percent Inhibition of CXCR4/CXCL12 Binding (400 nM peptide)” value on human CXCR4 [3] was determined as 11%.

Consider `CC(C)C[C@H](NC(=O)[C@H](CO)NC(=O)[C@H](CO)NC(=O)[C@H](CCCNC(=N)N)NC(=O)[C@@H](NC(=O)[C@H](CO)NC(=O)[C@H](Cc1c[nH]cn1)NC(=O)[C@H](Cc1c[nH]cn1)NC(=O)[C@H](Cc1ccc(O)cc1)NC(=O)[C@H](CCCNC(=N)N)NC(=O)[C@H](CCC(=O)O)NC(=O)[C@@H](N)CC(C)C)C(C)C)C(=O)N[C@@H](CCCNC(=N)N)C(=O)N1CCC[C@H]1C(=O)N[C@@H](Cc1ccc(O)cc1)C(=O)N[C@H](C(=O)O)[C@@H](C)O` [compound 18] (H-LERYHHSVRSSLRPYT-OH; N-terminus and C-terminus assumed), for which, in the test with Jurkat cells, the “Percent Inhibition … (1.1 μM Test Article)” value was determined as 66%. Moreover, in test [2], the “Percent Inhibition of CXCR4/CXCL12 Induced p-MEK (100 nM Test Article)” value is given as 45% and the “Percent Inhibition of CXCR4/CXCL12 Induced p-MEK (1 μM Test Article)” value is on record as 78%. Also, the “Percent Inhibition of CXCR4/CXCL12 Binding (400 nM peptide)” value on human CXCR4 [3] is reported as 57%.

At human CXCR4 [1], `CC(C)C[C@H](NC(=O)[C@H](CO)NC(=O)[C@H](CO)NC(=O)[C@H](CCCNC(=N)N)NC(=O)[C@@H](NC(=O)[C@H](CO)NC(=O)[C@H](Cc1c[nH]cn1)NC(=O)[C@H](Cc1c[nH]cn1)NC(=O)[C@H](Cc1ccc(O)cc1)NC(=O)[C@H](CC(=O)O)NC(=O)[C@H](CCCNC(=N)N)NC(=O)[C@@H](N)CC(C)C)C(C)C)C(=O)N[C@@H](CCCNC(=N)N)C(=O)N1CCC[C@H]1C(=O)N[C@@H](Cc1ccc(O)cc1)C(=O)N[C@H](C(=O)N[C@@H](CCCCN)C(=O)O)[C@@H](C)O` [compound 36] (H-LRDYHHSVRSSLRPYTK-OH; N-terminus and C-terminus assumed) registered an IC50 greater than 1000 nM. In test [2], the “Percent Inhibition of CXCR4/CXCL12 Induced p-MEK (100 nM Test Article)” value came to 22% and the “Percent Inhibition of CXCR4/CXCL12 Induced p-MEK (1 μM Test Article)” value is −5%. Besides, the “Percent Inhibition of CXCR4/CXCL12 Binding (400 nM peptide)” value at human CXCR4 [3] is on record as −11%.

In turn, `CC(C)C[C@H](NC(=O)[C@@H](NC(=O)[C@H](CO)NC(=O)[C@H](CCCNC(=N)N)NC(=O)[C@@H](C)NC(=O)[C@H](CO)NC(=O)[C@H](Cc1c[nH]cn1)NC(=O)[C@H](Cc1c[nH]cn1)NC(=O)[C@H](Cc1ccc(O)cc1)NC(=O)[C@H](CCCNC(=N)N)NC(=O)[C@H](CCC(=O)O)NC(=O)[C@@H](N)CC(C)C)[C@@H](C)O)C(=O)N[C@@H](CCCNC(=N)N)C(=O)N1CCC[C@H]1C(=O)N[C@@H](Cc1ccc(O)cc1)C(=O)N[C@H](C(=O)N[C@@H](CCCCN)C(=O)O)[C@@H](C)O` [compound 77] (H-LERYHHS[dA]RSTLRPYTK-OH; N-terminus and C-terminus assumed) gave a half-maximal inhibitory concentration (IC50) against human CXCR4 [1] of 4 nM. In test [2], the “Percent Inhibition of CXCR4/CXCL12 Induced p-MEK (100 nM Test Article)” value is listed as 7% and the “Percent Inhibition of CXCR4/CXCL12 Induced p-MEK (1 μM Test Article)” value came to 68%. The “Percent Inhibition of CXCR4/CXCL12 Binding (400 nM peptide)” value on human CXCR4 [3] is given as 77%.

`CC(C)C[C@H](NC(=O)[C@H](CO)NC(=O)[C@H](CO)NC(=O)[C@H](CCCNC(=N)N)NC(=O)[C@@H](C)NC(=O)[C@H](CO)NC(=O)[C@H](Cc1c[nH]cn1)NC(=O)[C@H](Cc1c[nH]cn1)NC(=O)[C@H](Cc1ccc(O)cc1)NC(=O)[C@H](CCCNC(=N)N)NC(=O)[C@H](CCC(=O)O)NC(=O)[C@@H](N)CC(C)C)C(=O)N[C@@H](CCCNC(=N)N)C(=O)NCC(=O)N[C@@H](Cc1ccc(O)cc1)C(=O)N[C@H](C(=O)N[C@@H](CCCCN)C(=O)O)[C@@H](C)O` [compound 81] (H-LERYHHS[dA]RSSLRGYTK-OH; N-terminus and C-terminus assumed) showed an IC50 at human CXCR4 [1] of 3 nM. In addition, in test [2], the “Percent Inhibition of CXCR4/CXCL12 Induced p-MEK (100 nM Test Article)” value is listed as −16% and the “Percent Inhibition of CXCR4/CXCL12 Induced p-MEK (1 μM Test Article)” value was determined as 20%. The “Percent Inhibition of CXCR4/CXCL12 Binding (400 nM peptide)” value at human CXCR4 [3] is on record as 81%.

At human CXCR4 [1], `CC(C)C[C@H](NC(=O)[C@H](CO)NC(=O)[C@H](CO)NC(=O)[C@H](CCCNC(=N)N)NC(=O)[C@@H](C)NC(=O)[C@H](CO)NC(=O)[C@H](Cc1c[nH]cn1)NC(=O)[C@H](CC(N)=O)NC(=O)[C@H](Cc1ccc(O)cc1)NC(=O)[C@H](CCCNC(=N)N)NC(=O)[C@H](CCC(=O)O)NC(=O)[C@@H](N)CC(C)C)C(=O)N[C@@H](CCCNC(=N)N)C(=O)N1CCC[C@H]1C(=O)N[C@@H](Cc1ccc(O)cc1)C(=O)N[C@H](C(=O)N[C@@H](CCCCN)C(=O)O)[C@@H](C)O` [compound 43] (H-LERYNHS[dA]RSSLRPYTK-OH; N-terminus and C-terminus assumed) displayed an IC50 of 14 nM. In test [2], the “Percent Inhibition of CXCR4/CXCL12 Induced p-MEK (100 nM Test Article)” value was determined as 5% and the “Percent Inhibition of CXCR4/CXCL12 Induced p-MEK (1 μM Test Article)” value is on record as 40%. The “Percent Inhibition of CXCR4/CXCL12 Binding (400 nM peptide)” value on human CXCR4 [3] is on record as 53%.
